According to the NIST ThermoML archive (doi:10.1021/je300134c):

Test: xn = mol fraction of the nth substance listed
Details: 101 kPa, Liquid; for speed of sound: Sing-around technique in a fixed-path interferometer; for mass density: Vibrating tube method

CCCCn1cc[n+](C)c1.O=S(=O)([O-])C(F)(F)F [1-butyl-3-methylimidazolium trifluoromethanesulfonate] + O
Details | mass density [kg/m3] | speed of sound [m/s]
288.15 K, x1 = 0.05002 | 1122.78 | 1539.5
288.15 K, x1 = 0.09974 | 1178.77 | 1524.8
288.15 K, x1 = 0.1499 | 1211.09 | 1510.4
288.15 K, x1 = 0.3013 | 1257.47 | 1474.6
288.15 K, x1 = 0.3994 | 1272.13 | 1459
288.15 K, x1 = 0.4973 | 1281.71 | 1447.6
288.15 K, x1 = 0.5999 | 1289.22 | 1438
288.15 K, x1 = 0.6988 | 1294.59 | 1431.6
288.15 K, x1 = 0.8953 | 1302.01 | 1420.5
288.15 K, x1 = 1 | 1304.56 | 1416
298.15 K, x1 = 0.05002 | 1116.95 | 1538.2
298.15 K, x1 = 0.09974 | 1171.65 | 1514.3
298.15 K, x1 = 0.1499 | 1203.38 | 1494.8
298.15 K, x1 = 0.3013 | 1249.32 | 1453.8
298.15 K, x1 = 0.3994 | 1263.98 | 1437.3
298.15 K, x1 = 0.4973 | 1273.59 | 1425.5
298.15 K, x1 = 0.5999 | 1281.16 | 1415.7
298.15 K, x1 = 0.6988 | 1286.57 | 1408.8
298.15 K, x1 = 0.8953 | 1294.08 | 1397.7
298.15 K, x1 = 1 | 1296.67 | 1393
308.15 K, x1 = 0.05002 | 1110.67 | 1533.5
308.15 K, x1 = 0.09974 | 1164.25 | 1501.6
308.15 K, x1 = 0.1499 | 1195.48 | 1477.9
308.15 K, x1 = 0.3013 | 1241.1 | 1432.7
308.15 K, x1 = 0.3994 | 1255.79 | 1415.6
308.15 K, x1 = 0.4973 | 1265.46 | 1403.5
308.15 K, x1 = 0.5999 | 1273.1 | 1393.6
308.15 K, x1 = 0.6988 | 1278.56 | 1386.5
308.15 K, x1 = 0.8953 | 1286.15 | 1375.5
308.15 K, x1 = 1 | 1288.78 | 1370.7
318.15 K, x1 = 0.05002 | 1103.96 | 1525.8
318.15 K, x1 = 0.09974 | 1156.58 | 1486.9
318.15 K, x1 = 0.1499 | 1187.4 | 1459.8
318.15 K, x1 = 0.3013 | 1232.82 | 1411.4
318.15 K, x1 = 0.3994 | 1247.58 | 1393.8
318.15 K, x1 = 0.4973 | 1257.33 | 1381.7
318.15 K, x1 = 0.5999 | 1265.05 | 1371.7
318.15 K, x1 = 0.6988 | 1270.58 | 1364.7
318.15 K, x1 = 0.8953 | 1278.27 | 1353.8
318.15 K, x1 = 1 | 1280.95 | 1349
328.15 K, x1 = 0.05002 | 1096.85 | 1515.2
328.15 K, x1 = 0.09974 | 1148.65 | 1470.6
328.15 K, x1 = 0.1499 | 1179.14 | 1440.5
328.15 K, x1 = 0.3013 | 1224.48 | 1389.8
328.15 K, x1 = 0.3994 | 1239.35 | 1372.1
328.15 K, x1 = 0.4973 | 1249.21 | 1359.9
328.15 K, x1 = 0.5999 | 1257.03 | 1350.1
328.15 K, x1 = 0.6988 | 1262.64 | 1343.2
328.15 K, x1 = 0.8953 | 1270.44 | 1332.5
328.15 K, x1 = 1 | 1273.16 | 1327.8
338.15 K, x1 = 0.05002 | 1089.38 | 1502.3
338.15 K, x1 = 0.09974 | 1140.47 | 1452.7
338.15 K, x1 = 0.1499 | 1170.71 | 1420.3
338.15 K, x1 = 0.3013 | 1216.08 | 1368.1
338.15 K, x1 = 0.3994 | 1231.09 | 1350.4
338.15 K, x1 = 0.4973 | 1241.08 | 1338.3
338.15 K, x1 = 0.5999 | 1249.02 | 1328.7
338.15 K, x1 = 0.6988 | 1254.72 | 1321.6
338.15 K, x1 = 0.8953 | 1262.66 | 1311.2
338.15 K, x1 = 1 | 1265.44 | 1307
